From US20180148418A1, “AMIDO-SUBSTITUTED CYCLOHEXANE DERIVATIVES” (Bayer Pharma Aktiengesellschaft, priority 2015, published 2018)

Tests used:
[1] = system: wildtype Wnt signaling cascade; test: HEK293 TOP assay (Super TopFlash luciferase reporter, Wnt-3a stimulated); assay type: cell-based; details: Homo sapiens, HEK293, 16 h, HEK293 TOP reporter cells, Wnt3a at EC50, 16 hours
Outline: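 Compound series (50 μM down to 15 nM, 3.16-fold) diluted from DMSO 50-fold into CAFTY buffer, pH 7.4, 2 mM Ca^2+, 0.01% BSA, applied to Wnt-3a-stimulated HEK293 TopFlash and FOP reporter lines in parallel. Cells seeded 10000/well 24 h before; luciferase signal measured.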

[2] = system: HEK293 cells cotransfected with the FOP control vector; test: HEK293 FOP assay (control reporter with non-functional TCF elements); assay type: cell-based; details: Homo sapiens, 16 hours
Outline: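 Compound series from 50 μM down to 15 nM, prediluted in DMSO then 50-fold into CAFTY buffer (pH 7.4, 2 mM Ca2+, 0.01% BSA), tested alongside TOP cells on a Geneticin-selected HEK293 FOP line whose TCF elements are replaced by a random sequence; recombinant human Wnt-3a applied at 2500-5 ng/ml.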

TNKS2 = biological target: T1, TNKS2 (Homo sapiens, UniProt Q9H2K2); test: TNKS2 Assay B (auto-parsylation, [3H]-NAD+ SPA); assay type: biochemical; details: 6 nM TNKS2, auto-parsylation, over night at room temperature
T1 construct: purchased BPS Bioscience, San Diego, USA 80572 (TNKS2 Histone Ribosylation Assay Kit)
T1 sequence (Q9H2K2 1-1166): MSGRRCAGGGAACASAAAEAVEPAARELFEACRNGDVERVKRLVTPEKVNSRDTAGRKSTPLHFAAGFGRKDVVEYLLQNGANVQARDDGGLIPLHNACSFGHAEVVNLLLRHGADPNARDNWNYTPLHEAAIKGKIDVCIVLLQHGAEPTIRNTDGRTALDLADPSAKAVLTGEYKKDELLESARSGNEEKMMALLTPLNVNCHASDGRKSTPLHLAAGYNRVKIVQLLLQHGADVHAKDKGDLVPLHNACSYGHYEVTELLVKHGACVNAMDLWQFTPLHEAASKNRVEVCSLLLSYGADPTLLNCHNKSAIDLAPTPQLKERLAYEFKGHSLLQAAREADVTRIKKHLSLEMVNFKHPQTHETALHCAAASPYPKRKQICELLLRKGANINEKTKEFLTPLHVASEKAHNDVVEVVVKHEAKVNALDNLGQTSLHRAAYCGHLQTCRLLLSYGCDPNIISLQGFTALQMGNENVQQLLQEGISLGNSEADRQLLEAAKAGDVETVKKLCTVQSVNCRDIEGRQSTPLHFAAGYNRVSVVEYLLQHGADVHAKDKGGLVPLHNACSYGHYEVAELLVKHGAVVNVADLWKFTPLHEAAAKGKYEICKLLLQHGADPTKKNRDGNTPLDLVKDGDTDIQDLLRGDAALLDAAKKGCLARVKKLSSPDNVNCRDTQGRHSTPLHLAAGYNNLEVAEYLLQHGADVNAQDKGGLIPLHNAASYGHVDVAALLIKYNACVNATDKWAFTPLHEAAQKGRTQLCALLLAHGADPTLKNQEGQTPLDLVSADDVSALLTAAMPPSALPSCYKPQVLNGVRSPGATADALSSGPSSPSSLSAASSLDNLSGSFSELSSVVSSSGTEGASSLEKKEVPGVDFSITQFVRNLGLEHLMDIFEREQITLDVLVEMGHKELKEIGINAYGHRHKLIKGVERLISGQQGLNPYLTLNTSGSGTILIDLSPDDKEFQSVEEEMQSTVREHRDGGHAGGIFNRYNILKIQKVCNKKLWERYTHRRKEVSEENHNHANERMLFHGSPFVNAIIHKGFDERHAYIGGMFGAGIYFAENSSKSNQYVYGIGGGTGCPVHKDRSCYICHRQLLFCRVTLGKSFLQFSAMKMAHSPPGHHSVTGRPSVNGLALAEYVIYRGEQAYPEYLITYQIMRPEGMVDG

SMILES | IC50 [1] [nM] | IC50 [2] [nM] | IC50 (TNKS2) [nM]
Cc1cc(N2CC[C@]3(CC[C@@H](NC(=O)c4[nH]cnc4C(=O)N4CC(F)C4)CC3)C2=O)c(Cl)cc1F [Example 292, N-[(trans)-2-(2-chloro-4-fluoro-5-methylphenyl)-1-oxo-2-azaspiro[4.5]dec-8-yl]-4-[(3-fluoroazetidin-1-yl)carbonyl]-1H-imidazole-5-carboxamide] | 1.6 | 10000 | 8.8
Cc1cc(N2CC[C@]3(CC[C@@H](NC(=O)c4[nH]cnc4C(=O)N4CC5(COC5)C4)CC3)C2=O)c(Cl)cc1F [Example 293, N-[(trans)-2-(2-chloro-4-fluoro-5-methylphenyl)-1-oxo-2-azaspiro[4.5]dec-8-yl]-4-(2-oxa-6-azaspiro[3.3]hept-6-ylcarbonyl)-1H-imidazole-5-carboxamide] | 1.6 | ≥ 50000 | 7.9
Cc1cc(N2CC[C@]3(CC[C@@H](NC(=O)c4[nH]cnc4C(=O)N4CCN(C)CC4)CC3)C2=O)c(Cl)cc1F [Example 294, N-[(trans)-2-(2-chloro-4-fluoro-5-methylphenyl)-1-oxo-2-azaspiro[4.5]dec-8-yl]-4-[(4-methylpiperazin-1-yl)carbonyl]-1H-imidazole-5-carboxamide] | 46 | ≥ 50000 | 150
Cc1cc(N2CC[C@]3(CC[C@@H](NC(=O)c4[nH]cnc4C(=O)NC4CC4)CC3)C2=O)c(Cl)cc1F [Example 295, N^5-[(trans)-2-(2-chloro-4-fluoro-5-methylphenyl)-1-oxo-2-azaspiro[4.5]dec-8-yl]-N^4-cyclopropyl-1H-imidazole-4,5-dicarboxamide] | 1 | 12000 | 9.2
Cc1cc(N2CC[C@]3(CC[C@@H](NC(=O)c4[nH]cnc4C(=O)N4CC(OC(F)F)C4)CC3)C2=O)c(Cl)cc1F [Example 296, N-[(trans)-2-(2-chloro-4-fluoro-5-methylphenyl)-1-oxo-2-azaspiro[4.5]dec-8-yl]-4-{[3-(difluoromethoxy)azetidin-1-yl]carbonyl}-1H-imidazole-5-carboxamide] | 1.3 | 35000 | 8.3
Cc1cc(N2CCC[C@]3(CC[C@@H](NC(=O)c4[nH]cnc4C(=O)N4CC(F)C4)CC3)C2=O)c(Cl)cc1F [Example 303, N-[(trans)-2-(2-chloro-4-fluoro-5-methylphenyl)-1-oxo-2-azaspiro[5.5]undec-9-yl]-4-[(3-fluoroazetidin-1-yl)carbonyl]-1H-imidazole-5-carboxamide] | 14 | ≥ 500 | 32
CNC(=O)c1nc[nH]c1C(=O)N[C@H]1CC[C@@]2(CCCN(c3cc(C)c(F)cc3Cl)C2=O)CC1 [Example 304, N^5-[(trans)-2-(2-chloro-4-fluoro-5-methylphenyl)-1-oxo-2-azaspiro[5.5]undec-9-yl]-N^4-methyl-1H-imidazole-4,5-dicarboxamide] | 11 | ≥ 500 | 47
CCNC(=O)c1nc[nH]c1C(=O)N[C@H]1CC[C@@]2(CCCN(c3cc(C)c(F)cc3Cl)C2=O)CC1 [Example 305, N^5-[(trans)-2-(2-chloro-4-fluoro-5-methylphenyl)-1-oxo-2-azaspiro[5.5]undec-9-yl]-N^4-ethyl-1H-imidazole-4,5-dicarboxamide] | 8.1 | ≥ 500 | 65
COCCNC(=O)c1nc[nH]c1C(=O)N[C@H]1CC[C@@]2(CCCN(c3cc(C)c(F)cc3Cl)C2=O)CC1 [Example 306, N^5-[(trans)-2-(2-chloro-4-fluoro-5-methylphenyl)-1-oxo-2-azaspiro[5.5]undec-9-yl]-N^4-(2-methoxyethyl)-1H-imidazole-4,5-dicarboxamide] | 12 | ≥ 500 | 67
Cc1cc(N2CCC[C@]3(CC[C@@H](NC(=O)c4[nH]cnc4C(=O)NC4CC4)CC3)C2=O)c(Cl)cc1F [Example 308, N^5-[(trans)-2-(2-chloro-4-fluoro-5-methylphenyl)-1-oxo-2-azaspiro[5.5]undec-9-yl]-N^4-cyclopropyl-1H-imidazole-4,5-dicarboxamide] | 5.4 | 11000 | 110
Cc1cc(N2CCC[C@]3(CC[C@@H](NC(=O)c4[nH]cnc4C(N)=O)CC3)C2=O)c(Cl)cc1F [Example 309, N^5-[(trans)-2-(2-chloro-4-fluoro-5-methylphenyl)-1-oxo-2-azaspiro[5.5]undec-9-yl]-1H-imidazole-4,5-dicarboxamide] | 100 | ≥ 50000 | 45
Cc1cc(N2CCC[C@]3(CC[C@@H](NC(=O)c4[nH]cnc4C(=O)NC(C)C)CC3)C2=O)c(Cl)cc1F [Example 310, N^5-[(trans)-2-(2-chloro-4-fluoro-5-methylphenyl)-1-oxo-2-azaspiro[5.5]undec-9-yl]-N^4-(propan-2-yl)-1H-imidazole-4,5-dicarboxamide] | 15 | 13000 | 270
Cc1cc(N2CCC[C@]3(CC[C@@H](NC(=O)c4[nH]cnc4C(=O)N4CC5(COC5)C4)CC3)C2=O)c(Cl)cc1F [Example 311, N-[(trans)-2-(2-chloro-4-fluoro-5-methylphenyl)-1-oxo-2-azaspiro[5.5]undec-9-yl]-4-(2-oxa-6-azaspiro[3.3]hept-6-ylcarbonyl)-1H-imidazole-5-carboxamide] | 30 | ≥ 50000 | 41
Cc1cc(N2CCC[C@]3(CC[C@@H](NC(=O)c4[nH]cnc4C(=O)NCCN4CCC(C)CC4)CC3)C2=O)c(Cl)cc1F [Example 312, N^5-[(trans)-2-(2-chloro-4-fluoro-5-methylphenyl)-1-oxo-2-azaspiro[5.5]undec-9-yl]-N^4-[2-(4-methylpiperidin-1-yl)ethyl]-1H-imidazole-4,5-dicarboxamide] | 24 | ≥ 500 | 4.1
O=C(N[C@H]1CC[C@@]2(CCCN(c3cc(F)c(F)cc3Cl)C2=O)CC1)c1cnn2cccnc12 [Example 313, N-[(trans)-2-(2-chloro-4,5-difluorophenyl)-1-oxo-2-azaspiro[5.5]undec-9-yl]pyrazolo[1,5-a]pyrimidine-3-carboxamide] | 2.7 | ≥ 500 | 10
O=C(N[C@H]1CC[C@@]2(CCCN(c3cc(F)c(F)cc3Cl)C2=O)CC1)c1cnc2cccnn12 [Example 314, N-[(trans)-2-(2-chloro-4,5-difluorophenyl)-1-oxo-2-azaspiro[5.5]undec-9-yl]imidazo[1,2-b]pyridazine-3-carboxamide] | 6.3 | ≥ 500 | 22
Cc1cc(C)n2ncc(C(=O)N[C@H]3CC[C@@]4(CCCN(c5cc(F)c(F)cc5Cl)C4=O)CC3)c2n1 [Example 315, N-[(trans)-2-(2-chloro-4,5-difluorophenyl)-1-oxo-2-azaspiro[5.5]undec-9-yl]-5,7-dimethylpyrazolo[1,5-a]pyrimidine-3-carboxamide] | 3.9 | ≥ 500 | 14
O=C(N[C@H]1CC[C@@]2(CCCN(c3cc(F)c(F)cc3Cl)C2=O)CC1)c1[nH]cnc1C(=O)N1CC(F)C1 [Example 316, N-[(trans)-2-(2-chloro-4,5-difluorophenyl)-1-oxo-2-azaspiro[5.5]undec-9-yl]-4-[(3-fluoroazetidin-1-yl)carbonyl]-1H-imidazole-5-carboxamide] | 1.6 | ≥ 500 | 5
